Assays:
[1] = (§1) Cytotoxicity in African green monkey Vero E6 cells […] by Neutral red release assay; format: toxicity, cell-based, Vero C1008; details: chlorocebus sabaeus, Vero E6 cells
[2] = test system: SARS-CoV-2; assay: Antiviral activity against SARS-CoV-2 infected in African green monkey Vero E6 cells assessed as reduction in viral replication preincubated with compound followed by viral infection for 1 hr measured after 25 to 26 hrs by ELISA; format: functional, organism-based, Severe acute respiratory syndrome coronavirus 2
[3] = target: Replicase polyprotein 1ab (Severe acute respiratory syndrome coronavirus 2, UniProt P0DTD1); assay: Inhibition of SARS CoV-2 MPro using MCA-AVLQSGFR-Lys(Dnp)-Lys-NH2 as substrate preincubated for 10 mins followed by substrate addition measured for 10 mins by FRET assay
[4] = test system: Vero C1008; assay: as §1; format: toxicity, cell-based; details: chlorocebus sabaeus, vero c1008, 600 h; 600 h
[5] = Half life in Sprague-Dawley rat at 2 mg/kg, iv measured for 0.033 to 24 hrs by LC-MS/MS analysis; format: ADME, organism-based; details: in vivo, time 0.033-24 hrs
[6] = Tmax in Sprague-Dawley rat at 2 mg/kg, iv measured for 0.033 to 24 hrs by LC-MS/MS analysis; format: ADME, organism-based; details: in vivo, time 0.033-24 hrs
[7] = Cmax in Sprague-Dawley rat at 2 mg/kg, iv measured for 0.033 to 24 hrs by LC-MS/MS analysis; format: ADME, organism-based; parameters: time upper 24 hrs, dose 2 mg/kg, time lower 0.033 hrs, route iv; details: in vivo
[8] = AUC (0 to t) in Sprague-Dawley rat at 2 mg/kg, iv measured for 0.033 to 24 hrs by LC-MS/MS analysis; format: ADME, organism-based; parameters: time lower 0.033 hrs, dose 2 mg/kg, time upper 24 hrs, route iv; details: in vivo
[9] = AUC (0 to infinity) in Sprague-Dawley rat at 2 mg/kg, iv measured for 0.033 to 24 hrs by LC-MS/MS analysis; format: ADME, organism-based; parameters: time 0.033-24 hrs, dose 2 mg/kg, route iv; details: in vivo
[10] = Volume of distribution in Sprague-Dawley rat at 2 mg/kg, iv measured for 0.033 to 24 hrs by LC-MS/MS analysis; format: ADME, organism-based; details: in vivo, time 0.033-24 hrs
[11] = Clearance in Sprague-Dawley rat at 2 mg/kg, iv measured for 0.033 to 24 hrs by LC-MS/MS analysis; format: ADME, organism-based; details: in vivo, time 0.033-24 hrs
[12] = Half life in Sprague-Dawley rat at 10 mg/kg, po measured for 0.083 to 24 hrs by LC-MS/MS analysis; format: ADME, organism-based; details: in vivo, time 0.083-24 hrs
[13] = Tmax in Sprague-Dawley rat at 10 mg/kg, po measured for 0.083 to 24 hrs by LC-MS/MS analysis; format: ADME, organism-based; details: in vivo, time 0.083-24 hrs
[14] = Cmax in Sprague-Dawley rat at 10 mg/kg, po measured for 0.083 to 24 hrs by LC-MS/MS analysis; format: ADME, organism-based; parameters: time lower 0.083 hrs, dose 10 mg/kg, time upper 24 hrs, route po; details: in vivo
[15] = AUC (0 to t) in Sprague-Dawley rat at 10 mg/kg, po measured for 0.083 to 24 hrs by LC-MS/MS analysis; format: ADME, organism-based; parameters: time 0.083-24 hrs, dose 10 mg/kg, route po; details: in vivo
[16] = AUC (0 to infinity) in Sprague-Dawley rat at 10 mg/kg, po measured for 0.083 to 24 hrs by LC-MS/MS analysis; format: ADME, organism-based; parameters: time 0.083-24 hrs, dose 10 mg/kg, route po; details: in vivo
[17] = Oral bioavailability in Sprague-Dawley rat at 10 mg/kg measured for 0.083 to 24 hrs by LC-MS/MS analysis; format: ADME, organism-based; details: in vivo, time 0.083-24 hrs
[18] = test system: SARS-CoV-2; assay: Antiviral activity against SARS-CoV-2 USA_WA1/2020 infected in African green monkey Vero E6 cells expressing hACE2 assessed as reduction in virus-induced cytopathic effect incubated for 3 days in presence of P-gp efflux inhibitor by Cell Titer-Glo assay; format: functional, organism-based; details: Severe acute respiratory syndrome coronavirus 2, USA_WA1/2020, Vero C1008, 72 h
[19] = test system: SARS-CoV-2; assay: Antiviral activity against wild-type SARS CoV-2 infected in African green monkey Vero E6 cells assessed as reduction in viral plaque incubated for 3 days; format: functional, organism-based; details: Severe acute respiratory syndrome coronavirus 2, Vero C1008, 72 h
[20] = test system: SARS-CoV-2; assay: Antiviral activity against SARS CoV-2 Alpha infected in African green monkey Vero E6 cells assessed as reduction in viral plaque incubated for 3 days; format: functional, organism-based; details: Severe acute respiratory syndrome coronavirus 2, Alpha, Vero C1008, 72 h
[21] = test system: SARS-CoV-2; assay: Antiviral activity against SARS CoV-2 Delta infected in African green monkey Vero E6 cells assessed as reduction in viral plaque incubated for 3 days; format: functional, organism-based; details: Severe acute respiratory syndrome coronavirus 2, Delta, Vero C1008, 72 h
[22] = test system: SARS-CoV-2; assay: Antiviral activity against SARS CoV-2 Omicron […] infected in African green monkey Vero E6 cells assessed as reduction in viral plaque incubated for 3 days; format: functional, organism-based; details: Severe acute respiratory syndrome coronavirus 2, Vero C1008, 72 h
[23] = Severe acute respiratory syndrome coronavirus 2, Vero C1008

CC(C)(C)[C@H](NC(=O)C(F)(F)F)C(=O)N1C[C@H]2[C@@H]([C@H]1C(=O)N[C@H](C#N)C[C@@H]1CCNC1=O)C2(C)C
CC50 at 600 h [1]: > 100000 nM

O=C(NCc1cccs1)[C@@H]1CN(C(=O)c2cccnc2)CCN1c1ccc(Cl)c(Cl)c1
EC50 [2, 23]: 1300 nM
CC50 at 600 h [1]: 100000 nM

O=C(NS(=O)(=O)c1cccs1)[C@@H]1CN(C(=O)c2cccnc2)CCN1c1ccc(Cl)c(Cl)c1
IC50 [3]: 9500 nM

COc1ccncc1C(=O)N1CCN(c2ccc(Cl)c(Cl)c2)[C@H](C(=O)NCc2ccc(F)s2)C1 [listing 1 of 2 here]
IC50 [3]: 350 nM
EC50 ([2]; vero e6): 1400 nM
CC50 [4]: 100000 nM

CN(Cc1cccs1)C(=O)[C@@H]1CN(C(=O)c2cccnc2)CCN1c1ccc(Cl)c(Cl)c1
IC50 [3]: 1300 nM

O=C(NCc1cccs1)[C@@H]1CN(C(=O)c2cncc(F)c2)CCN1c1ccc(Cl)c(Cl)c1
IC50 [3]: 350 nM
EC50 [2, 23]: 1500 nM
CC50 at 600 h [1]: > 100000 nM

O=C(NCc1ccc(Br)s1)[C@@H]1CN(C(=O)c2cccnc2)CCN1c1ccc(Cl)c(Cl)c1
IC50 [3]: 1800 nM

COc1ccncc1C(=O)N1CCN(c2ccc(Cl)c(Cl)c2)[C@H](C(=O)Nc2ccc(OC(F)F)cc2)C1
IC50 [3]: 480 nM

O=C(NCc1cccs1)[C@@H]1CN(C(=O)c2cnccc2Cl)CCN1c1ccc(Cl)c(Cl)c1
IC50 [3]: 320 nM
EC50 [2, 23]: 3100 nM
CC50 at 600 h [1]: > 100000 nM

COc1ccncc1C(=O)N1CCN(c2ccc(Cl)c(Cl)c2)[C@H](C(=O)NCc2cccs2)C1.Cl
IC50 [3]: 170 nM
EC50 ([2]; vero e6): 530 nM
half-life [5]: 18.6 min
Tmax [6]: 1.8 min
Cmax [7]: 1240 ng/mL
AUC(0-t) [8]: 428 ng·h/mL
AUC(0-inf) [9]: 431 ng·h/mL
Vd [10]: 2.07 L/kg
clearance [11]: 77.4 mL/min/kg
half-life [12]: 86.4 min
Tmax [13]: 30 min
Cmax [14]: 81.6 ng/mL
AUC(0-t) [15]: 202 ng·h/mL
AUC(0-inf) [16]: 226 ng·h/mL
bioavailability [17]: 10.5%

O=C(NCc1ccc(F)s1)[C@@H]1CN(C(=O)c2cccnc2)CCN1c1ccc(Cl)c(Cl)c1
IC50 [3]: 400 nM
EC50 [2, 23]: 1500 nM
CC50 at 600 h [1]: 79000 nM

O=C(NCc1cccs1)[C@@H]1CN(C(=O)c2cncc(O)c2)CCN1c1ccc(Cl)c(Cl)c1
IC50 [3]: 440 nM
EC50 [2, 23]: 15000 nM

O=C(NCc1cccs1)[C@@H]1CN(C(=O)c2cc(=O)[nH]c3ccccc23)CCN1c1ccc(Cl)c(Cl)c1
IC50 [3]: 270 nM
EC50 [2, 23]: 5400 nM
CC50 at 600 h [1]: > 100000 nM

COc1cccc2[nH]c(C(=O)N[C@@H](CC(C)C)C(=O)N[C@H](C[C@@H]3CCNC3=O)C(=O)CO)cc12
EC50 [18]: 220 nM

COc1ccncc1C(=O)N1CCN(c2ccc(Cl)c(Cl)c2)[C@H](C(=O)NCc2cccs2)C1
EC50 [2, 23]: 780 nM
CC50 at 600 h [1]: > 100000 nM

COc1ccc(NC(=O)[C@@H]2CN(C(=O)c3cccnc3)CCN2c2ccc(Cl)c(Cl)c2)cc1
IC50 [3]: 200 nM
EC50 [2, 23]: 740 nM
CC50 at 600 h [1]: 95000 nM

O=C(NCc1cccs1)[C@@H]1CN(C(=O)c2cncc3cc[nH]c23)CCN1c1ccc(Cl)c(Cl)c1 [listing 1 of 2 here]
IC50 [3]: 210 nM
EC50 ([2]; vero e6): 530 nM
CC50 [4]: 42000 nM
EC50 [19]: 240 nM
EC50 [20]: 130 nM
EC50 [21]: 220 nM
EC50 [22]: 80 nM

COc1ccncc1C(=O)N1CCN(c2ccc(Cl)c(Cl)c2)[C@H](C(=O)Nc2cc(F)c(OC)c(F)c2)C1
IC50 [3]: 430 nM
EC50 [2, 23]: 3100 nM

COc1ccncc1C(=O)N1CCN(c2ccc(Cl)c(Cl)c2)[C@H](C(=O)NCc2ccc(F)s2)C1 [listing 2 of 2 here]
IC50 [3]: 410 nM
EC50 [2, 23]: 1500 nM
CC50 at 600 h [1]: > 100000 nM

COc1cc(OC)c(NC(=O)[C@@H]2CN(C(=O)c3cnccc3OC)CCN2c2ccc(Cl)c(Cl)c2)cc1F
IC50 [3]: 400 nM
EC50 [2, 23]: 1500 nM
CC50 at 600 h [1]: 79000 nM

O=C(NCc1cccs1)[C@@H]1CN(C(=O)c2cncc3cc[nH]c23)CCN1c1ccc(Cl)c(Cl)c1 [listing 2 of 2 here]
IC50 [3]: 250 nM
EC50 [2, 23]: 540 nM
CC50 at 600 h [1]: 36000 nM
